Experiments:
[1] = system: patients with molecularly confirmed vascular EDS; experiment: Long-term cohort follow-up of vEDS patients treated with celiprolol: patient survival (Kaplan-Meier, Cox model); format: in vivo, human; parameters: Survival of patients at 1 year of follow-up / Survival of patients at 5 years of follow-up / Survival of patients at 10 years of follow-up / Overall patient survival (Kaplan-Meier) / Survival at end of follow-up in those treated with celiprolol / Survival according to type of variant: Group I / Survival according to type of variant: Group II / Survival according to type of variant: Group III: concentration or dose not given beside the values
Procedure: (§1) All patients with clinically and molecularly diagnosed vEDS that were actively followed clinically in the French National Referral Centre for Rare Vascular Diseases (HEGP, AP-HP, Paris, France) between January 2000 and March 2017 were screened for participation. During the initial evaluation of the first affected family member seeking medical attention for symptoms related to vEDS (index case), familial medical history was recorded and investigation performed in the first-degree relatives whenever possible. A dedicated database for vEDS was created at our institution in 2011. All relevant clinical data of every vEDS patient followed by our centre was entered into this database retrospectively from the year 2000 until 2011, and prospectively thereafter until Mar. 15, 2017. The database contains all available medical history related to the pathology before the initial work-up and obtained during the follow-up either through systematic visits or those caused by a new clinical event. Thus, the occurrence of any acute arterial, gastrointestinal, pulmonary and other vEDS-related events was systematically recorded. In case of death during follow-up, the time and cause of death were entered into the database. This study was formally approved by the IDF ethics committee (IRB registration #00001072) and the database was held in compliance with French legislation on patient privacy.
(§2) All vEDS patients benefited from standardized whole body arterial monitoring by Doppler Ultrasound (DUS) and CT angiogram and/or MRA. Such investigations were performed at baseline (initial assessment at molecular diagnosis) and was repeated every 12 to 15 months in asymptomatic patients. For arterial events that occurred before molecular diagnosis, location of arterial segments was retrieved from hospitalization and imaging reports or examinations, when available. In case of an acute arterial event, symptomatic arterial beds/segments were monitored by any necessary diagnostic and therapeutic means (CT-angiogram, DUS, angiography in case of embolization). […] For optimized management of arterial, gastrointestinal, and pulmonary emergencies, patients were given direct access to the medical team of our centre.
(§3) Since the publication of the BBest trial in 2011, all included patients followed by our centre and not already treated with celiprolol were offered to switch to celiprolol. Patients who were not part of the trial and who were diagnosed during or since the termination of the BBest trial were treated with celiprolol starting at molecular diagnosis. Initial dosing of celiprolol was 100 mg once daily and increased by 100 mg/day every month over a 3-month period to reach the dose of 400 mg/day (200 mg twice daily) (celiprolol hydrochloride). In case of signs of intolerance (fatigue, dizziness) during up-titration or follow-up, the dose of celiprolol was reduced by 100 mg/day until the highest tolerated dose was reached. Dose adjustments were made whenever necessary throughout the patient's follow-up if intolerance was suspected. In accordance with the treatment protocol of the BBEST trial, patients were up-titrated to a maximum dose of 200 mg twice daily.
Adherence to medication was verified by open interview of the patients at each follow-up visit. Low medication adherence was considered if patients admitted to not taking their medication regularly at any moment of their follow-up. Patients were considered intolerant to celiprolol in case of refusal to follow the prescription even at a minimum dose of 100 mg/day. Patients taking another beta-blocker were offered to switch to celiprolol but this change was not mandatory, especially if patients had been clinically silent until molecular diagnosis while under another betablocker. If an acute arterial event occurred, patients were once again offered to switch to celiprolol. […]

[2] = system: patients with molecularly confirmed vascular EDS; experiment: Cohort follow-up: incidence of acute arterial events and hospitalizations; format: in vivo, human
Procedure: as §1, §2
In order to assess arterial morbidity over a long timeline in patients with different follow-up periods, an empirical arterial score was designed for each subject. […]
Quantitative data were expressed as number, median, first and third quartiles; qualitative data were expressed as number and percentage. […] Quantitative variables were compared with the Wilcoxon-Mann-Whitney or the Kruskal Wallis tests, as appropriate. […]

[3] = system: patients with molecularly confirmed vascular EDS; experiment: Cohort follow-up: tolerance of celiprolol with 3-month up-titration; format: in vivo, human
Procedure: as §3
Adherence to medication was verified by open interview of the patients at each follow-up visit. Low medication adherence was considered if patients admitted to not taking their medication regularly at any moment of their follow-up. Patients were considered intolerant to celiprolol in case of refusal to follow the prescription even at a minimum dose of 100 mg/day. Patients taking another beta-blocker were offered to switch to celiprolol but this change was not mandatory, especially if patients had been clinically silent until molecular diagnosis while under another betablocker. If an acute arterial event occurred, patients were once again offered to switch to celiprolol. To reach significant numbers to allow comparative analysis, intolerant patients, patients not taking celiprolol, patients taking another betablocker and non-adherent patients were merged into one group further referred to as “not treated”.

[4] = system: patients with a phenotype of vEDS or molecularly proven vEDS; conditions: final 200 mg twice a day (BID); 5-year follow-up; 18-month up-titration; cited from earlier work
[5] = Cox's model, stepwise method, n=132
[6] = multivariate Cox's model, n=132 (Groups I and II)
[7] = whole cohort, 90.3% on celiprolol by end of study

## CCN(CC)C(=O)Nc1ccc(OCC(O)CNC(C)(C)C)c(C(C)=O)c1 (stereo not shown) [celiprolol, N′-(3-Acetyl-4-(3-((1,1-dimethylethyl)amino)-2-hydroxypropoxy)phenyl)-N, N-diethylurea]
[1]; 400 mg/day better than a smaller dose
  Observed reduction in mortality: dose dependence: dose-dependent
[1]; [5]
  Hazard ratio, celiprolol treatment Full dose/No: 0.060
  Hazard ratio, celiprolol treatment Half dose/No: 0.305
  Hazard ratio, treatment duration ≥6 years/<6 years: 0.058
[1]; Group I (glycine missense), n=144 cohort
  Survival according to type of variant: Group I: 65.1%
[1]; Group II (splice-site variants, insertions/deletions, duplications)
  Survival according to type of variant: Group II: 89.6%
[1]; Group III (haploinsufficiency)
  Survival according to type of variant: Group III: 100%
[1]; Groups I and II (n=132), treated n=110
  Survival at end of follow-up in those treated with celiprolol: 80.7%
[1]; Groups I and II, 400 mg/day
  Survival at end of follow-up according to daily dose: celiprolol 400 mg/day: 85%
[1]; Groups I and II, 100-300 mg/day
  Survival at end of follow-up according to daily dose: celiprolol 100-300 mg/day: 62.8%
[1]; [6]
  Hazard ratio, celiprolol treatment Full dose/No: 0.048
  Hazard ratio, celiprolol treatment Half dose/No: 0.303
  Hazard ratio, treatment duration ≥6 years/<6 years: 0.058
[1]; n=144, 1 year
  Survival of patients at 1 year of follow-up: 98.6%
[1]; n=144, 5 years
  Survival of patients at 5 years of follow-up: 92%
[1]; n=144, 10 years
  Survival of patients at 10 years of follow-up: 82.7%
[1]; n=144 vascular EDS patients, end of follow-up
  Overall patient survival (Kaplan-Meier): 71.6%
[1]; of N=17 deceased patients
  Deceased patients with celiprolol treatment (Yes), %: (52.9%)
[1]; of N=127 alive patients
  Alive patients with celiprolol treatment (Yes), %: (87.4%)
[1]; overall conclusion
  Survival of patients treated with celiprolol compared with others: better survival than others
[2]; before vs after systematic introduction of celiprolol (2011)
  Odds ratio (OR), rate of hospitalizations for acute arterial event before and after 2011: 1.72
[2]; in vivo
  Effect of celiprolol on mean age of occurrence of first and second new arterial event: without identifiable effect
[2]; [7]
  Cumulative incidence of a first new arterial event during follow-up: 56.8%
  Cumulative incidence of a second new arterial event during follow-up: 29.8%
[3]; full dose, up-titration of about three months
  Celiprolol intolerance and side effects with about three-month up-titration: without significant increase
[3]; human, in vivo
  Patients requiring dose reduction due to fatigue and/or dizziness: 3.47%
[3]; n=2 of 144
  Patients who declared themselves intolerant to celiprolol or refused to take it in fear of intolerance: 1.4%
[4]
  reduction in morbidity and mortality: 35%

From patent publication US11523997B2, “Method of providing celiprolol therapy to a patient” (Assistance Publique-Hôpitaux de Paris (AP-HP), priority 2017, dated 2022)
